Assay results from US20210284618A1, “FURANOCHALCONES AS INHIBITORS OF CYP1A1, CYP1A2 AND CYP1B1 FOR CANCER CHEMOPREVENTION” (Council of Scientific & Industrial Research, priority 2016, published 2021).

Experiments:
CYP1B1 = target: T1, CYP1B1 (Homo sapiens, UniProt Q16678); assay: In-vitro CYP450 1B1 enzyme inhibition in Saccharosomes; assay type: biochemical; set-up: purchased CYP Design Ltd; host or cells: yeast microsomes (Saccharosomes); conditions: 10 μM test compound, 7-ethoxyresorufin; for inhibition at 10 μM: human, Saccharosomes (yeast-derived) with recombinant CYP1B1, probe 7-ethoxyresorufin (5 μl of 0.1 mM), % inhibition of CYP1B1 in Saccharosomes at 10 μM
T1 sequence (Q16678 1-543): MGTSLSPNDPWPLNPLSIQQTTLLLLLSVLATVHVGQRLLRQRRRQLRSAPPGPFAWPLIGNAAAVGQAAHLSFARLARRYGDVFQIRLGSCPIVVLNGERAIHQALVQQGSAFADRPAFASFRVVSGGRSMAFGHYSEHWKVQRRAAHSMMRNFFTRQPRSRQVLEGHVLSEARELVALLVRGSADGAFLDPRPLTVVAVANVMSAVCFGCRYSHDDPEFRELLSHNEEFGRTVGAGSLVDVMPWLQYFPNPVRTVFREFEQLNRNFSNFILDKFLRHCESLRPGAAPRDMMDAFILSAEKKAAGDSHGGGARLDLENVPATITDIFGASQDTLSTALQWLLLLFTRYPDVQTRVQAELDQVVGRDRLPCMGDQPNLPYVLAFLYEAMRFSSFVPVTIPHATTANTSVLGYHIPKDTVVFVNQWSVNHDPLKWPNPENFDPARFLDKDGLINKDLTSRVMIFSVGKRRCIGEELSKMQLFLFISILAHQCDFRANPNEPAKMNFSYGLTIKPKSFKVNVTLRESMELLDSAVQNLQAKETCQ
Procedure: Example 24. In-vitro CYP450 1B1 enzyme inhibition in Saccharosomes™: Regenerating system consists of: 5 μl Solution A (183 mg of NADP++183 mg of glucose-6-phosphate+654 μl of 1.0 M magnesium chloride solution+9.15 ml of sterile ultra-pure water)+1 μl Solution B (250 Units of glucose-6-phosphate dehydrogenase+6.25 ml of 5 mM sodium citrate; mixed in a tube and made up to 10 ml with sterile ultra-pure water)+39 μl 0.2 M Kpi (0.6 ml of 1.0M K2HPO4+9.4 ml of 1.0 M KH2PO4 were mixed and made up to 50 ml with sterile ultra-pure water)+5 μl potential inhibitory compound.
(§1) Example 25. IC50 determination for best compound against CYP1A1, CYP1B1 and other CYPs in Saccharosomes. Compounds were serially diluted to six different concentrations with 10% DMSO in a Sero-Well white microplate. The experiment was performed in a similar way as described above in examples 23 and 24.

CYP1A1 [1] = target: T2, CYP1A1 (Homo sapiens, UniProt P04798); assay: CYP1A1 inhibition in HEK293 cells transfected with pcDNA3.1/CYP1A1 (live cells); assay type: cell-based; conditions: for inhibition at 10 μM: human, HEK293 cells transfected with pcDNA3.1/CYP1A1 (live cells), probe EROD (5 μM), % inhibition of CYP1A1 in HEK293 cells at 10 μM; for inhibition at 10 μM / % inhibition of CYP1A1 in HEK293 cells at 10 μM: 5 μM EROD
T2 construct: host or cells: yeast microsomes (Saccharosomes)
T2 sequence (P04798 1-512): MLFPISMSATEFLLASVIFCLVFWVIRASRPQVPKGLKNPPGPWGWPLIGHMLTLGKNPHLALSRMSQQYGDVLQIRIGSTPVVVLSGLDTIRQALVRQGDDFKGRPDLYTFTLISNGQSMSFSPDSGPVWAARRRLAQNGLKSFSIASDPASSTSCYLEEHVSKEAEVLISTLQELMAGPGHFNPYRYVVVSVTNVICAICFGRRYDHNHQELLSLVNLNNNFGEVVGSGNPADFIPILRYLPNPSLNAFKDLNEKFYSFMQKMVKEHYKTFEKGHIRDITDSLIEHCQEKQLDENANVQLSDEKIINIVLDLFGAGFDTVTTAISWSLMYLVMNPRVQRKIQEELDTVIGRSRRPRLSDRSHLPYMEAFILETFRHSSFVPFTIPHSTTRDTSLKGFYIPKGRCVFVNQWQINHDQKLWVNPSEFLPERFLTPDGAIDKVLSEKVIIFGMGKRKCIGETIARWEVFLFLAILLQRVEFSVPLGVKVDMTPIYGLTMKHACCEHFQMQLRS
Procedure: Example 26. In-vitro CYP450 inhibition in HEK293 cells transfected with pcDNA3.1/CYP1A1 against 5 μM EROD. […] The HEK293 cells used here was procured from ‘European Collection of Authenticated Cell Cultures’ (catalog number. ECACC 85120602).

CYP1A1 [2] = target: T2, CYP1A1; assay: In-vitro CYP450 1A1 enzyme inhibition in Saccharosomes; assay type: biochemical; conditions: for inhibition at 20 min, 10 μM: human, Saccharosomes containing CYP1A1, pH 7.4, probe ethoxyresorufin (5 μM), % inhibition of CYP1A1 in Saccharosomes at 10 μM; for inhibition at 20 min, 10 μM / % inhibition of CYP1A1 in Saccharosomes at 10 μM: 10 μM test compound, 5 μM ethoxyresorufin
Procedure: Example 23. In-vitro CYP450 1A1 enzyme inhibition in Saccharosomes™: The screening method utilizes 384-well microplates to rapidly ascertain relative percentage inhibition of CYP1A1 by a library of compounds. Each reaction was performed in black, clear-bottomed 384-well microplates. A reaction volume of 50 μl comprised of 0.5 pmol of the cytochrome P450 CYP1A1 (Saccharosomes), 5 μM of ethoxyresorufin substrate (which contributes 0.05% DMSO to the well), 10 μM of potential inhibitor test article (which contributes 0.5% DMSO to the well), A P450 reductase NADPH regenerating system (1.3 mM NADP+, 3.3 mM glucose-6-0.02 units phosphate and glucose-6-Phosphate dehydrogenase), potassium phosphate buffer (final well concentration 100 mM, pH 7.4) and water. Very small quantities of magnesium chloride and sodium citrate are added to the NADPH regenerating system, in line with standard published protocols. The potential inhibitor (test article) was pre-incubated with CYP1A1 of at least 20 minutes at 30° C. After this period, the remainder of the reagents required in the assay was added to initiate the process. The reaction mixture was incubated for another 20 minutes at 30° C. The reaction was stopped by adding an 80% acetonitrile, 20% 0.5 M Tris solution. The reactions were monitored using the Biotek Synergy HT plate reader by measuring the endpoint reaction at Excitation 530/(25 bandwidth) & Emission 590/(20 bandwidth) using a gain/sensitivity setting of 60. The mean of the quadruplicates of the negative control (solvent inactivated CYP1A1) was deducted from the mean of potential inhibitor (test article) samples. The percentage was then derived relative to the mean of the wells without inhibitor.
as §1

Row | SMILES | inhibition at 10 μM (CYP1A1 [1]) [%] | inhibition at 20 min, 10 μM (CYP1A1 [2]) [%] | melting point [°C] | inhibition at 10 μM (CYP1B1) [%] | other results
1 | O=c1cc(-c2ccccc2)oc2c1ccc1ccccc12 [Alpha-naphthoflavone, reference compound] | 30 | 97 |  |  | % inhibition of CYP1B1 in Saccharosomes at 10 μM (CYP1B1): 98%; IC50 (CYP1A1 [1]): > 10000 nM; IC50 (CYP1A1 [2]): 90 nM
2 | COc1c2occc2c(OC)c2c(=O)cc(C)oc12 [Compound 1, Khellin, reference compound] |  | 88 |  |  | % inhibition of CYP1A1 in Saccharosomes at 10 μM (CYP1A1 [2]): 88.3%
3 | COc1c(C(C)=O)c(O)c(OC)c2occc12 [Compound 2, 1-(6-hydroxy-4,7-dimethoxybenzofuran-5-yl)ethanone] | > 80 |  |  |  | 
4 | COc1c(C(=O)/C=C/c2ccc(Br)cc2)c(O)c(OC)c2occc12 [Compound 3, 3-(4,7-dimethoxy-6-hydroxybenzofuran-5-yl)-1-(4-bromophenyl)-3-oxopropene] |  |  | 135 to 137 |  | 
5 | COc1c(C(=O)/C=C/c2ccc(Cl)cc2)c(O)c(OC)c2occc12 [Compound 4, 3-(4,7-dimethoxy-6-hydroxybenzofuran-5-yl)-1-(4-chlorophenyl)-3-oxopropene] | > 80 | 77.5 | 162 to 164 |  | % inhibition of CYP1A1 in HEK293 cells at 10 μM (CYP1A1 [1]): 85.7%
6 | COc1c(C(=O)/C=C/c2ccc(F)c(Br)c2)c(O)c(OC)c2occc12 [Compound 5, 3-(4,7-dimethoxy-6-hydroxybenzofuran-5-yl)-1-(3-bromo-4-fluorophenyl)-3-oxopropene] | > 80 | > 80 | 186 to 188 |  | % inhibition of CYP1A1 in HEK293 cells at 10 μM (CYP1A1 [1]): 82.3%; % inhibition of CYP1A1 in Saccharosomes at 10 μM (CYP1A1 [2]): 83.1%
7 | COc1c(C(=O)/C=C/c2ccc(F)cc2F)c(O)c(OC)c2occc12 [Compound 7, 3-(4,7-dimethoxy-6-hydroxybenzofuran-5-yl)-1-(2,4-difluorophenyl)-3-oxopropene] | > 80 |  | 154 to 156 |  | 
8 | COc1ccc(/C=C/C(=O)c2c(O)c(OC)c3occc3c2OC)cc1 [Compound 9, 3-(4,7-dimethoxy-6-hydroxybenzofuran-5-yl)-1-(4-methoxyphenyl)-3-oxopropene] | 55.7 | 28.9 | 198 to 199 |  | 
9 | COc1c(C(=O)/C=C/c2c(Cl)cccc2Cl)c(O)c(OC)c2occc12 [Compound 10, 3-(4,7-dimethoxy-6-hydroxybenzofuran-5-yl)-1-(2,6-dichlorophenyl)-3-oxopropene] | 58.8 | 19.6 | 298 to 299 |  | 
10 | COc1cccc(/C=C/C(=O)c2c(O)c(OC)c3occc3c2OC)c1OC [Compound 13, 3-(4,7-dimethoxy-6-hydroxybenzofuran-5-yl)-1-(2,3 dimethoxyphenyl)-3-oxopropene] |  |  | 260 to 262 |  | 
11 | COc1c(C(=O)/C=C/c2ccccc2)c(O)c(OC)c2occc12 [Compound 16, 3-(4,7-dimethoxy-6-hydroxybenzofuran-5-yl)-1-(phenyl)-3-oxopropene] | > 80 | > 80 |  |  | 

Now from value to molecule, other results behind:

Row | inhibition at 10 μM (CYP1A1 [1]) [%] | inhibition at 20 min, 10 μM (CYP1A1 [2]) [%] | melting point [°C] | inhibition at 10 μM (CYP1B1) [%] | SMILES | other results
12 | 74 | 37 |  |  | COc1ccc(/C=C/C(=O)c2c(O)c(OC)c3occc3c2OC)cc1Br [Compound 17, 3-(4,7-dimethoxy-6-hydroxybenzofuran-5-yl)-1-(3-bromo-4-methoxyphenyl)-3-oxopropene] | 
13 | > 80 | > 80 |  |  | COc1cc(OC)c(OC)cc1/C=C/C(=O)c1c(O)c(OC)c2occc2c1OC [Compound 18, 3-(4,7-dimethoxy-6-hydroxybenzofuran-5-yl)-1-(2,4,5-trimethoxyphenyl)-3-oxopropene] | % inhibition of CYP1A1 in HEK293 cells at 10 μM (CYP1A1 [1]): 96.8%; % inhibition of CYP1A1 in Saccharosomes at 10 μM (CYP1A1 [2]): 92.2%
14 |  | 48.4 |  | 41.6 | COc1c(C(=O)/C=C/c2ccc3c(c2)OCO3)c(O)c(OC)c2occc12 [Compound 19, 3-(benzo[d][1,3]dioxol-5-yl)-1-(6-hydroxy-4,7-dimethoxybenzofuran-5-yl)prop-2-en-1-one] | 
15 | 79.4 | > 80 |  | > 80 | COc1c(C(=O)/C=C/c2ccsc2)c(O)c(OC)c2occc12 [Compound 20, 1-(6-hydroxy-4,7-dimethoxybenzofuran-5-yl)-3-(thiophen-3-yl)prop-2-en-1-one] | % inhibition of CYP1B1 in Saccharosomes at 10 μM (CYP1B1; 10 µM): 84.0%; % inhibition of CYP1A1 in Saccharosomes at 10 μM (CYP1A1 [2]): 95.1%
16 | 71.4 | > 80 |  | 51.4 | COc1c(C(=O)/C=C/c2ccc(Cl)cc2Cl)c(O)c(OC)c2occc12 [Compound 21, 3-(2,4-dichlorophenyl)-1-(6-hydroxy-4,7-dimethoxybenzofuran-5-yl)prop-2-en-1-one] | % inhibition of CYP1A1 in Saccharosomes at 10 μM (CYP1A1 [2]): 80.2%
17 |  | 49.7 |  | 25.8 | COc1c(C(=O)/C=C/c2ccc3ccccc3c2)c(O)c(OC)c2occc12 [Compound 22, 1-(6-hydroxy-4,7-dimethoxybenzofuran-5-yl)-3-(naphthalen-2-yl)prop-2-en-1-one] | 
18 |  | 41.1 |  | 34.2 | COc1c(C(=O)/C=C/c2ccccc2F)c(O)c(OC)c2occc12 [Compound 23, 3-(2-fluorophenyl)-1-(6-hydroxy-4,7-dimethoxybenzofuran-5-yl)prop-2-en-1-one] | 
19 |  | 43.4 |  | 19.2 | COc1c(C(=O)/C=C/c2ccc3cc4ccccc4cc3c2)c(O)c(OC)c2occc12 [Compound 24, 3-(anthracen-2-yl)-1-(6-hydroxy-4,7-dimethoxybenzofuran-5-yl)prop-2-en-1-one] | 
